Measured values as given in publication PMC10208956, “Microbial peptides activate tumour-infiltrating lymphocytes in glioblastoma” (Nature, 2023).

Tests used:
Assay type in all cases: cell-based, human
[1] = tested on: sorted CD4+ PE and FITC TCRVβ+ TILs; experiment: Proliferation of TCRBV-sorted CD4+ TILs (without TCRBV6.1 and TCRBV6.2); conditions: sheet 6b
Excerpt: TILs expressing specific TCRBVs were isolated from bulk TILs using a panel of 22 fluorescently labelled TCRBV antibodies that detect 27 different TCRBVs. Twelve TCRBV antibodies were labelled with PE and 10 with FITC (Beckman Coulter). […] After another wash, cells were stained with CD4 (1:100) (APC anti-human CD4, eBioscience), CD8 (1:100) (Pacific blue anti-human CD8, BioLegend), TCRBV-PE (1:25) (Beckman Coulter) and TCRBV-FITC (1:25) (Beckman Coulter) antibodies (Supplementary Table 12) for 30 min. Finally, cells were sorted, seeded at 5 × 10^4 cells per well in T cell medium without h-IL-2 and rested for 1 day before stimulation with 2 × 10^5 cells per well of irradiated autologous PBMCs (45 Gy) and peptide (10 µM).
Two populations of CD4^+ PE-TCRVβ^+ and CD4^+ FITC-TCRVβ^+ were sorted and later mixed together. […] Specific amount of each cytokine/chemokine (pg/ml) was calculated by subtracting the cytokines in the negative control cultures (no peptide control). Source data

[2] = tested on: TCC88; experiment: Cytokine and chemokine secretion of TCC88 after peptide stimulation; conditions: TCC88 supernatant after peptide stimulation; no peptide control subtracted; Fig. 3e
Excerpt: (§1) Fig. 3 Bacteria-derived and microbiota-derived peptides can stimulate TCC88 as well as the tumour antigen. a, Peptides with the highest predicted stimulatory scores were identified by searching various databases (see Methods). Numbers of unique 10-mer peptides within each database, synthesized peptides, TCC88 stimulatory peptides and the corresponding percentage of stimulatory peptides within each database are shown. […] Cytokine and chemokine secretion of TCC88 was examined and compared upon stimulation with these three different antigens. A specific amount of each cytokine and chemokine (pg ml^−1) was calculated by subtracting the cytokines in the negative control cultures (no peptide control). f, Cytotoxicity of TCC88 against the autologous tumour cell line after stimulation with 2 µM of SIN3A* and HGM3 (data represent the mean percentage of two replicate wells). E:T, effector to target. g, TCC88 was tested with HGM3 (10 µM) or SIN3A* (10 µM) peptides or both together (each 10 µM), and ^3H-thymidine incorporation was measured after 3 days (data represent the mean SI value of three replicate wells ± s.e.m.). Also see Extended Data Figs. 3 and 4. Source data
Supernatants from each experiment were harvested a day before adding thymidine and frozen at −20 °C. Cytokines were measured using ELISA for human IFNγ ELISA MAX (BioLegend), human GM-CSF DuoSet ELISA (R&D Systems) and bead-based assays. A Synergy H1 hybrid multi-mode reader (Agilent) was used to measure the absorbance. The LEGENDplex Multi-analyte Flow Assay kit (BioLegend) is a 13-plex human TH cytokine panel, which includes IFNγ, TNF, IL-2, IL-4, IL-5, IL-6, IL-9, IL-10, IL-13, IL-17A, IL-17F, IL-21 and IL-22. […] LSR Fortessa Flow Cytometer (BD Biosciences) was used to measure cytokines, and data were analysed using FlowJo (Tree Star). The Human XL Cytokine Luminex Performance Assay Fixed Panel (R&D Systems) contains 45 analytes covering a broad range of various chemokines and cytokines.

[3] = tested on: autologous glioblastoma cells; experiment: T cell cytotoxicity assay of TCC88 against the autologous tumour cell line; conditions: TCC88 stimulated with 2 µM peptide for 72 h; E:T 1:1 and 5:1; 24 h; duplicates; Fig. 3f
Excerpt: as §1, with “Source data […]” for “Source data”

[4] = tested on: bacteria/microbiota-reactive CFSEdim CD4+ TILs; experiment: Proliferation of expanded CFSEdim CD4+ TILs that responded to the bacteria/microbiota peptide pool; conditions: 5 days; 4 replicate wells; Fig. 4d
[5] = tested on: CD45RA− peripheral T cells; experiment: Cytokine/chemokine secretion of unselected peripheral CD4+ T cells in response to LRP6; design: IL-1a / IL-1ß / IL-2 / IL-3 / IL-4 / IL-5 / IL-6 / IL-7 / IL-10 / IL-13 / IL-15 / IL-17A / IL-33 / TNF-a: unit not given here; conditions: Unselected CD45RA- PBMCs, sheet 6c (right panel)
[6] = tested on: bacteria/microbiota-reactive peripheral CD4+ T cells; experiment: Cytokine/chemokine secretion of selected peripheral CD4+ T cells in response to LRP6; design: IL-1a / IL-1ß / IL-2 / IL-3 / IL-4 / IL-5 / IL-6 / IL-7 / IL-10 / IL-13 / IL-15 / IL-17A / IL-33 / TNF-a: unit not given here
[7] = tested on: IPdBP-pre-stimulated peripheral memory CD4+ T cells; experiment: Cytokine/chemokine response of IPdBP-pre-stimulated peripheral memory CD4+ T cells; design: IL-1α / IL-1β / IL-2 / IL-3 / IL-4 / IL-5 / IL-6 / IL-7 / IL-10 / IL-13 / IL-15 / IL-17A / IL-33 / TNF-α: unit not given here
[8] = Selected peripheral CD4+, sheet 6c (right panel)
[9] = secretion by IPdBP-pre-stimulated peripheral memory CD4+ T cells

## Ac-LLEFNHSLGM-NH2 [HGM3]
[1]; replicate 1
  Proliferation (SI) of sorted CD4+ TILs: 1.141
[1]; replicate 2
  Proliferation (SI) of sorted CD4+ TILs: 1.14
[1]; replicate 3
  Proliferation (SI) of sorted CD4+ TILs: 1.525
[2]
  CCL20/MIP-3α: 6.47 pg/mL
  CD40 Ligand: 1548.01 pg/mL
  CXCL1/GROα: 80.23 pg/mL
  CXCL2/GROβ: 106.77 pg/mL
  CXCL8/IL-8: 0 pg/mL
  CXCL10/IP-10: 30.99 pg/mL
  Flt-3 Ligand: 108.26 pg/mL
  Fractalkine: 325.67 pg/mL
  GM-CSF: 4861.7 pg/mL
  Granzyme B: 2019.57 pg/mL
  IFN-α: 2.54 pg/mL
  IFN-γ: 781.13 pg/mL
  IL-1rα: 2003.66 pg/mL
  IL-1α: 12.29 pg/mL
  IL-1β: 17.76 pg/mL
  IL-2: 80.09 pg/mL
  IL-3: 109.49 pg/mL
  IL-4: 85.48 pg/mL
  IL-5: 32.99 pg/mL
  IL-6: 151.16 pg/mL
  IL-7: 0.74 pg/mL
  IL-10: 3974.26 pg/mL
  IL-12p70: 26.12 pg/mL
  IL-13: 1591.43 pg/mL
  IL-15: 2.07 pg/mL
  IL-17A: 1.97 pg/mL
  IL-17E/IL-25: 0 pg/mL
  IL-33: 17.4 pg/mL
  TNF-α: 4132.48 pg/mL
[3]
  cytotoxic activity against autologous glioblastoma cells (in words): comparable

## REFTKATNVRLRF [LAMA5, vaccine pool peptide from laminin subunit α5]
[4]
  recognition by CD4+ TILs pre-stimulated with the bacteria/microbiota peptide pool, by proliferation and/or GM-CSF secretion (in words): recognized

## HPFALTLFEDILY [LRP6]
[5]
  CCL2/MCP-1: 0
  CCL3/MIP-1a: 38350.7
  CCL4/MIP-1ß: 1401.95
  CCL11/Eotaxin: 0
  CCL19/MIP-3ß: 0
  CCL20/MIP-3a: 6.73
  CD40 Ligand: 1116.41
  CXCL1/GROa: 804.34
  CXCL2/GROß: 0
  CXCL8/IL-8: 0
  CXCL10/IP-10: 0
  Flt-3 Ligand: 15.31
  GM-CSF: 488.27
  Granzyme B: 0
  IFN-a: 1.18
  IFN-γ: 0
  IL-1a: 104.35
  IL-1ra: 0
  IL-1ß: 600.74
  IL-2: 0
  IL-3: 1.65
  IL-4: 0
  IL-5: 0
  IL-6: 20465.9
  IL-7: 0.54
  IL-10: 27.41
  IL-12p70: 9.74
  IL-13: 0
  IL-15: 1.25
  IL-17A: 0
  IL-17E/IL-25: 0
  IL-33: 7.76
  RANTES: 0
  TNF-a: 67.2
[6]; [8]
  CCL2/MCP-1: 4526.33
  CCL3/MIP-1a: 3125.42
  CCL4/MIP-1ß: 4031.29
  CCL11/Eotaxin: 4.67
  CCL19/MIP-3ß: 6.3
  CCL20/MIP-3a: 6.57
  CD40 Ligand: 1738.81
  CXCL1/GROa: 373.82
  CXCL2/GROß: 350.46
  CXCL8/IL-8: 2606.08
  CXCL10/IP-10: 147.39
  Flt-3 Ligand: 28.81
  GM-CSF: 1627.51
  Granzyme B: 2119.45
  IFN-a: 1.01
  IFN-γ: 159.02
  IL-1a: 15.17
  IL-1ra: 3794.38
  IL-1ß: 23.43
  IL-2: 10.94
  IL-3: 107.37
  IL-4: 4.49
  IL-5: 283.76
  IL-6: 167.44
  IL-7: 0.7
  IL-10: 475.26
  IL-12p70: 16.63
  IL-13: 400.29
  IL-15: 2.76
  IL-17A: 0
  IL-17E/IL-25: 0
  IL-33: 5.21
  RANTES: 798.34
  TNF-a: 1408.41
[6]; compared with the unselected cells, Extended Data Fig. 6c right
  cytokine and chemokine production of selected peripheral CD4+ T cells (in words): produced various cytokines and chemokines
[4]
  recognition by CD4+ TILs pre-stimulated with the bacteria/microbiota peptide pool, by proliferation and/or GM-CSF secretion (in words): recognized
[7]; Extended Data Fig. 7c
  cytokine and chemokine profile of immunopeptidome-reactive peripheral CD4+ T cells (in words): secreted not only GM-CSF but also several other pro-inflammatory cytokines including IFNγ, TNF and granzyme B
[7]; [9]
  CCL2/MCP-1: 0
  CCL3/MIP-1α: 3979.57
  CCL4/MIP-1β: 19527
  CCL11/Eotaxin: 3.84
  CCL19/MIP-3β: 12.07
  CCL20/MIP-3α: 17.43
  CD40 Ligand: 4129.61
  CXCL1/GROα: 0
  CXCL2/GROβ: 123.27
  CXCL8/IL-8: 3466.89
  CXCL10/IP-10: 353.48
  Flt-3 Ligand: 131.58
  GM-CSF: 8661.95
  Granzyme B: 7766.97
  IFN-α: 8.01
  IFN-γ: 1163.95
  IL-1rα: 0
  IL-1α: 19.6
  IL-1β: 20.52
  IL-2: 11.3
  IL-3: 158.99
  IL-4: 7.36
  IL-5: 1023.08
  IL-6: 217.73
  IL-7: 2.53
  IL-10: 4192.28
  IL-12p70: 24.59
  IL-13: 3507.83
  IL-15: 4.26
  IL-17A: 4.67
  IL-17E/IL-25: 0
  IL-33: 22.2
  RANTES: 10050.3
  TNF-α: 3505.52
